Results from patent US9108930B2, “N1- and N2-carbamoyl-1,2,3-triazole serine hydrolase inhibitors and methods” (The Scripps Research Institute, priority 2011, dated 2015).
pIC50: −log10 of the molar value. “And” between values parts separate entries of the source, which are not always exact repeats. Equal values may be shown once.

Key:
APEH = biological target: T1, APEH (Mus musculus, UniProt Q8R146); assay: Gel-based competitive ABPP, mouse T-cell proteome in vitro; assay type: biochemical; details: IC50 for APEH, in vitro, 30 minutes at 37° C., mouse
T1 sequence (Q8R146 1-732): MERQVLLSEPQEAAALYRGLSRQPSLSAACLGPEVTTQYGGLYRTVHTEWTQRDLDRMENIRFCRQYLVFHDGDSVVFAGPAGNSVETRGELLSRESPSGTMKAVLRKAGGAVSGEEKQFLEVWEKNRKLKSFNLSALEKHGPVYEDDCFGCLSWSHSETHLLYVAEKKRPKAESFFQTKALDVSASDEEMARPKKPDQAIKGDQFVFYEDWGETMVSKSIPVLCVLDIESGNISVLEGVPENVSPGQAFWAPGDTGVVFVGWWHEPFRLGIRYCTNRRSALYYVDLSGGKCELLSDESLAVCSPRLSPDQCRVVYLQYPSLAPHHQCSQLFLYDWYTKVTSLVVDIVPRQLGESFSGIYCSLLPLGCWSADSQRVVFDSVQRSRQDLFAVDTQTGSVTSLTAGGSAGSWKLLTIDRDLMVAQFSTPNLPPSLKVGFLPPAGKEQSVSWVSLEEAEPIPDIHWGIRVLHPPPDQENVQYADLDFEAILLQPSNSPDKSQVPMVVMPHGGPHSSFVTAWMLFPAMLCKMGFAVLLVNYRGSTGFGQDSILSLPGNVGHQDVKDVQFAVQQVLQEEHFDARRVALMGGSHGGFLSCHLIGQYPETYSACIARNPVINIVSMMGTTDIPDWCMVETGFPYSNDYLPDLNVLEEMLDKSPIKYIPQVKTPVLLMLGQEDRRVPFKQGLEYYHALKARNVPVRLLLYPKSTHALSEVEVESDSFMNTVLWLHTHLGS
Experimental: The carbamoyl triazole regioisomers were separated by gel chromatography and used for subsequent experiments. […] The compounds were screened at concentrations of 10 and 100 nM in mouse T-cell proteomes (FIG. 3e and FIG. 12).
Gel-based competitive ABPP experiments were performed as described previously. For competitive ABPP with FP-rhodamine, proteomes (1 mg/mL in PBS) were treated with FP-rhodamine (2 μM final concentration) in a […] total reaction volume. After 30 minutes at 25° C., the reactions were quenched with 2×SDS-PAGE loading buffer.
Proteomes were incubated with inhibitors for 30 minutes at 37° C. (in vitro) or for 4 h at 37° C. (in situ) at the indicated concentrations (n=3) prior to FP-rhodamine labeling. After SDS-PAGE and in-gel visualization, the percentage enzymatic activity remaining was determined by measuring the integrated optical intensity of the bands using IMAGER® software. IC50 values were determined from a dose-response curve generated using PRISM® software (GraphPad).

DAGLB = biological target: T2, DAGLB (Mus musculus, UniProt Q91WC9); assay: Gel-based ABPP assay against recombinant DAGLB (HEK293T-DAGLB lysates); assay type: biochemical; parameters: Full-length cDNAs encoding serine hydrolases were purchased from Open Biosystems; V5; host or cells: HEK293T; details: for activity against DAGLB: recombinant
T2 sequence (Q91WC9 1-669): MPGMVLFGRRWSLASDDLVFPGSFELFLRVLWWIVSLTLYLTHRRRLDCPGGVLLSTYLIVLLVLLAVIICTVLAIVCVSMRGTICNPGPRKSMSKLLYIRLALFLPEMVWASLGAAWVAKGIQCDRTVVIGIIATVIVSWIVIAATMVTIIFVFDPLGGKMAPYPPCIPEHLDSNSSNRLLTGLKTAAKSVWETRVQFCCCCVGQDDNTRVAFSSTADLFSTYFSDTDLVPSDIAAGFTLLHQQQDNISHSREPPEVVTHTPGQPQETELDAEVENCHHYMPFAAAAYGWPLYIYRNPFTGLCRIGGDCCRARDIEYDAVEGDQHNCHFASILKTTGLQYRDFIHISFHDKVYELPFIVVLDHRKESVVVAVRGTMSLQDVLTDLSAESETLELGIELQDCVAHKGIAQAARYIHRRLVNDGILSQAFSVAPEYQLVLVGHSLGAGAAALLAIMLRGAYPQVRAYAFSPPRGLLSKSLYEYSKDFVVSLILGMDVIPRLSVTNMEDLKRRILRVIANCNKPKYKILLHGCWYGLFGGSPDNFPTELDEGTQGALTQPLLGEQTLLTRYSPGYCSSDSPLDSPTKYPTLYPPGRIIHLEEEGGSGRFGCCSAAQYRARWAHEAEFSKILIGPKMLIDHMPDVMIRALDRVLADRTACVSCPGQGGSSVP

[1] = test system: serine hydrolases in mouse brain proteome; assay: Selectivity profile by competitive ABPP (mouse brain proteome), DAGL series; assay type: biochemical
ABHD11 [2] = biological target: T3, ABHD11 (Mus musculus, UniProt Q8K4F5); assay: In situ inhibition in cultured mouse T-cells, gel-based competitive ABPP; assay type: cell-based; details: 4 h at 37° C.; read-out: potency of ABHD11 inactivation in cultured T-cells
T3 sequence (Q8K4F5 35-307): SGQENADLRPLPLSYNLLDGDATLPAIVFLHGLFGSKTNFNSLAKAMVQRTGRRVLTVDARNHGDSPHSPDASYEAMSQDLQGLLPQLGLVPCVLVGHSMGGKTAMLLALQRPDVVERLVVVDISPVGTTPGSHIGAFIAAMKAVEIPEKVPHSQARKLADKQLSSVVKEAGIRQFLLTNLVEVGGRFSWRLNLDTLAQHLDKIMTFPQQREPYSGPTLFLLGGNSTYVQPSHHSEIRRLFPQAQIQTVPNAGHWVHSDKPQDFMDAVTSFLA

ABHD11 [3] = biological target: T3, ABHD11; assay: ABPP-SILAC in living mouse T-cells; details: 3 nM inhibitor, 4 h
ABHD11 [4] = biological target: T3, ABHD11; assay: Gel-based competitive ABPP, mouse T-cell proteome in vitro; assay type: biochemical; details: for pIC50: in vitro, 30 minutes at 37° C.
[5] = test system: serine hydrolases (SHs) in mouse T-cell proteomes; assay: Gel-based competitive ABPP, mouse T-cell proteomes in vitro, SH reactivity profile; assay type: biochemical; details: 100 nM, 30 minutes at 37° C.
PAFAH2 = PAFAH2 (Mus musculus, UniProt Q8VDG7); assay: Gel-based competitive ABPP, mouse T-cell proteome in vitro; assay type: biochemical; details: 30 minutes at 37° C.
Chain of PAFAH2 (Q8VDG7 whole entry): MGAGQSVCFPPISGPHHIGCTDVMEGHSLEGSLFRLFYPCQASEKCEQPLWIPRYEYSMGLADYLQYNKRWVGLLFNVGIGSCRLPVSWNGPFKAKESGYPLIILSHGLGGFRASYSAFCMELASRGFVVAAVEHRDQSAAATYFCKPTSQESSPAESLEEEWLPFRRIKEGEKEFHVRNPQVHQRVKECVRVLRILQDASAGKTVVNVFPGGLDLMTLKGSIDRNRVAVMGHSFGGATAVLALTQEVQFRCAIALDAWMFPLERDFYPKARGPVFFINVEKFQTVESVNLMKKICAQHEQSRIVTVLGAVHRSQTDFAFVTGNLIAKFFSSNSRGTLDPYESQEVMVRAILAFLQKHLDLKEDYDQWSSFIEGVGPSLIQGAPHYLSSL

DAGLA = biological target: T4, DAGLA (Mus musculus, UniProt Q6WQJ1); assay: Activity against recombinant DAGLA; assay type: biochemical
T4 construct: Full-length cDNAs encoding serine hydrolases were purchased from Open Biosystems; V5; host or cells: HEK293T
T4 sequence (Q6WQJ1 whole entry): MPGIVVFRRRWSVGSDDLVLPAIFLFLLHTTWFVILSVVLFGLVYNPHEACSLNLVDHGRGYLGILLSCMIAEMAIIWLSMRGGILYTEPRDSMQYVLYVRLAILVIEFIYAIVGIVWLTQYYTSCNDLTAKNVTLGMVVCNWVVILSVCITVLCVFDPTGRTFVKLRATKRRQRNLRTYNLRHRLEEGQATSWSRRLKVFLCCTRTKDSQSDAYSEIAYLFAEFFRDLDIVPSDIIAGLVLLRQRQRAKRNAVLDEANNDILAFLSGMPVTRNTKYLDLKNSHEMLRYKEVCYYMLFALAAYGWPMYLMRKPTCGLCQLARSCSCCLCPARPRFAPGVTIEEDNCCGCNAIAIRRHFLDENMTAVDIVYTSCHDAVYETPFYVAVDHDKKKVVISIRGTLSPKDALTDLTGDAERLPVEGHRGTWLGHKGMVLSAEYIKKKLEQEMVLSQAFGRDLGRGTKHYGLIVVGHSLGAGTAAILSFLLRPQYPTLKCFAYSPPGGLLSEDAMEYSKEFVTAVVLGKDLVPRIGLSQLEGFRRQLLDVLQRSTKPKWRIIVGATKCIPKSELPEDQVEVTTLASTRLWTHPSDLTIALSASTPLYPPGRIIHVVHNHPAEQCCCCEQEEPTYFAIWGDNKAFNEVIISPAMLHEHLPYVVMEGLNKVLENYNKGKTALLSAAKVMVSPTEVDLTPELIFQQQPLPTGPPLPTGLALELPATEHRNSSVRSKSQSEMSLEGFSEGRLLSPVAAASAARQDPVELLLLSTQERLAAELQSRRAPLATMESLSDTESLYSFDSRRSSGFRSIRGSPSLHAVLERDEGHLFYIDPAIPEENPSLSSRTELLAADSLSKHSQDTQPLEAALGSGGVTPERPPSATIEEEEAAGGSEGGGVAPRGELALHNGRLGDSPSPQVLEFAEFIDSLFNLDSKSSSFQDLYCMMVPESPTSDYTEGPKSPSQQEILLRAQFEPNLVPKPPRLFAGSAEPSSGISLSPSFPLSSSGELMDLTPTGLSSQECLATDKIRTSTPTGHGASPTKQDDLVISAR

[6] = test system: serine hydrolases in mouse tissues; assay: In vivo ABPP analysis of tissues from KLH25-treated mice; details: 25 mg/kg in PEG300, i.p., about 4 hours
Experimental: To assess the degree to which KLH25 is active in vivo, mice were treated with the compound for about 4 hours (25 mg/kg in PEG300, administered intraperitoneally, i.p.), sacrificed, and tissues were harvested for ABPP analysis.

In the case of `CC(C)CC(O)(CC(C)C)c1cn(C(=O)N2CCCC2)nn1` [N1 AA74-1], the pIC50 (APEH) was roughly 8.10.
For `O=C(N1CCCCC1Cc1ccccc1)n1cc(C(O)(c2ccccc2)c2ccccc2)nn1` (stereo not shown) [AA43-2], the pIC50 (DAGLB) was roughly 6.70, the “activity against DAGLB” value (DAGLB) was “completely blocked probe-labeling of DAGLB” and the “off-target activity / selectivity against other serine hydrolases” value [1] was “off-target activity against several other serine hydrolases, notably ABHD6, KIAA1363, and LYPLA1/2”.
For `CCCCCCCCCCC[C@@H](C[C@@H]1OC(=O)[C@H]1CCCCCC)OC(=O)[C@H](CC(C)C)NC=O` [THL, tetrahydrolipstatin, reference compound], the “activity against DAGLB” value (DAGLB) was “blocked”.
For `O=C(N1CCCCC1Cc1ccccc1)n1cc(-c2ccc(Br)cc2)nn1` (stereo not shown) [KT116], the “potency against DAGLB relative to KT117” value (DAGLB) was “greater than 5 fold”.
`COCC1CCCCN1C(=O)n1ncc(C(O)(c2ccccc2)c2ccccc2)n1` (stereo not shown) [AA44-2] was tested, and the pIC50 (ABHD11 [2]) was 9.77 to 9.85, the ABHD11 activity blocked (ABHD11 [3]) was > 95% and > 97% and the “inhibition of ABHD11” value (ABHD11 [4]; 10 nM) was “complete inactivation”. For the same compound, the pIC50 (ABHD11 [4]) was 9.00 and the “cross-reactivity with other SHs” value [5] was “no cross-reactivity with APEH, PAFAH2, or other SHs”.
For `O=C(N1CCCC1)n1cc(-c2ccc(Br)cc2)nn1` [N1 AA80-1], the pIC50 (PAFAH2) was 7.96.
For `O=C(N1CCCC1)n1ncc(-c2ccc(Br)cc2)n1` [N2 AA80-1], the pIC50 (PAFAH2) was 8.30.
With `O=C(N1CCCCC1Cc1ccccc1)n1cc(-c2ccc(OC(F)(F)F)cc2)nn1` (stereo not shown) [KLH25] the “activity against DAGLA” value (DAGLA) was “exhibited activity against both DAGL enzymes”, the “inhibition of ABHD6 and FAAH in vivo” value [6] was “Potent inhibition of ABHD6 and FAAH” and the “inhibition of endogenous DAGLA or DAGLB in vivo” value [6] was “No inhibition of protein bands corresponding to endogenous DAGLA or DAGLB”. For the same compound, the “activity against DAGLB” value (DAGLB) was “significantly more potent against DAGLB in comparison to AA43-2” and the “off-target activity / selectivity against other serine hydrolases” value [1] was “negligible activity against LYPLA1, LYPLA2, and PAFAH2”.
With `COCC1CCCCN1C(=O)n1cc(C(O)(c2ccccc2)c2ccccc2)nn1` (stereo not shown) [N1 AA44-2] the pIC50 (ABHD11 [4]) was roughly 7.24.
